The source of these data is US6455541B1, “Suppression, by 5-lipoxygenase inhibitors, of bone resorption” (Board of Regents, The University of Texas System, priority 1994, dated 2002).

One experiment deals with neonatal mouse calvariae. Put plainly: Neonatal mouse (murine) calvarial assay, 45Ca release. The format is cell-based. As to the method: The assay was performed as described by Gowen et al. (1983). Timed pregnant mice were injected with ^45Ca 2 days before parturition. Half-calvaria were removed from the 1-2-day-old pups and preincubated for 24 h in BGJb medium at 37° C. in a humidified atmosphere of 5% CO2 before transfer to fresh media with or without test substances for 48 h. The bones were incubated for a further 72 h and media and bones collected. Bone-resorbing activity was expressed as the percentage of the total ^45Ca released into the medium.

Experiment [1] has as its system isolated 23C6+ human giant cells. Put plainly: Pit formation by isolated human giant cells on sperm whale dentine. It is filed as cell-based. As to the method:
(§1) Quantitation of the effects of isolated osteoclasts on calcified matrices was determined using minor modifications of the disaggregated osteoclast resorption assay as described by Boyde et al. (1984). Sperm whale dentine (0.25×7×7 mm) was prepared using a Buehler low speed diamond saw (Buehler, Lake Bluff, Ill.) followed by sonication (15 min) in several changes of distilled water. Slices were sterilized using ultraviolet light.
(§2) Osteoclasts were stained for TRAP and counted and then pit numbers were counted following toluidine blue (0.1% w/v) staining by light microscopy. The plan area of matrix resorbed was quantitated using a computer-assisted morphometric program on a Bioquant System IV analysis system (R & M Biometrics, Nashville, Tenn.).
Human giant cell tumors (normally discarded after surgery) were minced and passed through 1#40SS wire mesh screen, allowed to settle for 5 min, and the cell suspension above the sediment collected. The cells were incubated with 23C6 monoclonal antibody that identifies the osteoclast vitronectin receptor (generously provided by Dr. Michael Horton) (1:10 dilution of hybridoma supernatant/10^6 cells) at 4° C. in serum-free medium for 30 min, after which immunomagnetic beads coated with anti-mouse IgG (Dynabead, Dynal, Inc., Great Neck, N.Y.) were added to the cell suspension. […]

Experiment [2] concerns isolated 23C6(+) human giant cells of bone. Put plainly: TRAP activity in isolated human giant cells. The format is cell-based. As to the method:
(§3) Osteoclast TRAP activity was measured using fluorescence spectroscopy as described by Chambers et al. (1987) with minor modifications. In brief, media from osteoclast cultures were harvested and stored at −70° C. until ready for assay.
(§4) The cells were washed with phosphate-buffered saline and harvested in 0.5 ml of Triton X-100 (0.05%, w/v). Aliquots of media or lysate 30 μl) were incubated with 170 μl of 2 mM methylumbelliferyl phosphate, pH 5.0, in 0.48 M acetate buffer (0.48 M sodium acetate, 0.48 M acetic acid, pH 5.0) and 30 mM tartaric acid. Samples were incubated for 30 min at 37° C. and the reaction terminated with 100 μl of stop solution containing 50 mM glycine, 50 mM EDTA, pH 10.4. Fluorescence was measured at excitation 360 nm and emission 448 nm using a fluorimeter (Fluoroskan, Flow Instruments). Enzyme activity was expressed as micromoles of methylumbelliferyl phosphate hydrolyzed/min/μg of protein and the protein content measured by the technique of Lowry et al. (1951).
Human giant cell tumors (normally discarded after surgery) were minced and passed through 1#40SS wire mesh screen, allowed to settle for 5 min, and the cell suspension above the sediment collected. […]

The next experiment has as its system isolated rat osteoclasts. Nature of the experiment: Disaggregated rat osteoclast pit formation assay on sperm whale dentine. The format is cell-based. As to the method: as §1
Neonatal Sprague-Dawley rats (2-3 days) were sacrificed by decapitation, the femurs and tibias were removed, scraped free of adherent tissue, and trimmed free of the epiphyses. The bones from one litter were combined and quickly minced using a scalpel blade in 2 ml of 199 medium and then vigorously mixed with a pipette in an 8-ml tube, allowed to settle for 10 s, and then 100 μl of the suspension was added to each well for a total of 16 wells in a 48-well microtiter plate containing sperm whale dentine (approximately four neonates are used per 16 wells). The cells were incubated at 37° C. for 30 min at which time the dentine was removed, washed in media, and placed in a fresh 48-well plate containing 250 μl of test medium.
as §2
Quantitation of the effects of isolated neonatal rat osteoclasts on calcified matrices was determined using minor modifications of the disaggregated osteoclast resorption assay as described by Boyde et al (1984). Briefly rat osteoclasts isolated as described by Chambers et al. (1983) were dispersed on prewetted (AMEM plus 5% FBS) slices of sperm whale dentine. Cultures were performed in 48 well-microtiter plates in humidified air (10% CO2) at 37° C. in αMEM medium (one slice/well in 200 μl medium). Numbers of osteoclasts and resorption lacunae were quantitated as described above for the avian osteoclasts.

For experiment [3], the system named is isolated avian osteoclasts. Put plainly: TRAP activity in isolated avian osteoclasts. It is filed as cell-based, Gallus domesticus. As to the method: Avian osteoclasts were isolated from medullary bone of laying White Leghorn hens Gallus domesticus (Pioneer Animal Supply, Kingswheel, Ohio) as described previously by Zambonin-Zallone and Teti (1981). In brief, bone marrow suspensions from the medullary bone of femora were filtered through Nytex cloth (110 μm, t'etko, Elmsford, N.Y.), centrifuged for 5 min at 1200 rpm, and the cell pellet resuspended in 0.2% NaCl for 3 min to lyse erythrocytes. After layering the cells on 100% fetal bovine serum for 1 h, sedimented cells were further filtered through Nytex filters (55 μm). Cells were harvested, resuspended in α-minimal Eagle's medium (GIBCO) containing 10 fetal bovine serum, with penicillin (100 units/ml), streptomycin (100 μg/ml), and Ara-C, to inhibit proliferation of nonosteoclastic cells. Cells were plated in 24- or 48-well plates (Costar, Cambridge, Mass.) at 1×10^4 cells/well and incubated at 37° C. in 10% CO2 humidified air for 48 h, after which they were washed to remove nonadherent cells. When matured osteoclasts were observed experiments were begun and terminated within 48 h.
as §3, §4

The subject of another experiment is C433 cells. Put plainly: Production of osteoclast-stimulating activity by C433 cells (conditioned medium bioassayed for TRAP in avian osteoclasts). The format is cell-based, human. The settings on record: flurbiprofen 10^−5 M; indomethacin 10^−6 M; nordihydroguaiaretic acid 10^−6, 10^−5 or 10^−4 M. As to the method:
FIG. 3A, FIG. 3B, FIG. 3C and FIG. 3D. Chemical characterization of activity. FIG. 3A. C433-conditioned medium was treated with ultraviolet-light (UV) for 24 h or placed in a boiling water bath (100° C.) for 15 min and bioassayed. FIG. 3B. amino peptidase M (A), carboxypeptidase (C), or Pronase-CB (P) were incubated in the presence of C433-conditioned medium for 12 h at 37° C. FIG. 3C. […] The resultant conditioned medium was bioassayed for activity. FIG. 3D. […] Conditioned medium was bioassayed for induction of TRAP activity in avian osteoclasts.
C433 cells were grown in 10% fetal bovine serum (Whittaker, Walkersville, Md.) 50% RPMI, 50% McCoys (Flow, McLean, Va.) until a density of 10^4 cells/ml was obtained, at which time the cells were harvested, washed, and placed in serum-free DMEM plus 10^−8 M, 1,25-(OH)2D3 for 48 h before harvest of conditioned medium. […] This conditioned medium was applied to a prewetted C18 Sep-Pak (Millipore, Waters, Milford, Mass.), and bound material was extracted using ethyl acetate. This material was dried under nitrogen and resuspended in water, it acetic acid and analyzed by high pressure measure liquid chromatography (HPLC) (Waters, Milford, Mass.) applied to a C8 semipreparative 25 cm×10 mm reverse phase column (Keystone Scientific, Inc., Bellefonte, Pa.) at 2 ml/min. The gradient was 0-100% methanol, 1% acetic acid over 60 min with 6-ml fractions collected. The fractions were dried under nitrogen, and those fractions to be assayed for osteoclast stimulating activity were stabilized with 20 μl of 10% bovine serum albumin. Fractions to be used for gas chromatography-mass spectrometric analysis were prepared for derivatization.

[4] abbreviates: Lymphotoxin 5 × 10^−9M + NDGA 10^−5M.

Where “and” joins values, the source holds several entries; their conditions need not be identical. Equal entries are not always repeated. Entries after “also recorded” stand apart in the source; their conditions may differ. Where two headings read alike, the source gives them in different places.

Consider 5-hydroxyeicosatetraenoic acid [5-HETE], for which the “stimulation of bone resorption in neonatal mouse calvariae (in words)” value with neonatal mouse calvariae was “stimulated bone resorption”. The “pit formation by human giant cells (in words)” value in experiment [1] is “caused pit formation”. Moreover, the “stimulation of TRAP activity in human giant cells (in words)” value in experiment [2] was “stimulated TRAP activity”. Moreover, the “stimulation of TRAP activity” value in experiment [2] (10^−10 M, 48 h) is reported as “maximally stimulated”; in experiment [3] (10^−10 M, 48 h), “maximally stimulated”. Besides, the “pit formation by isolated rat osteoclasts (in words)” value in the experiment on isolated rat osteoclasts is reported as “caused pit formation”. The “stimulation of TRAP activity in avian osteoclasts (in words)” value in experiment [3] is on record as “stimulated TRAP activity”. In addition, the “concentration of optimal stimulation of TRAP activity” value in experiment [3] (10^−8 M stimulates suboptimally) is given as 10^−10 M.

For `CCCCC/C=C\C\C=C/C=C/C=C/[C@@H](SC[C@H](NC(=O)CC[C@H](N)C(=O)O)C(=O)NCC(=O)O)[C@@H](O)CCCC(=O)O` [LTC4, leukotriene C4], in experiment [1] (10^−10 M), the “stimulation of pit formation” value is on record as “stimulated”.

In the case of `CC(Cc1ccc(O)c(O)c1)C(C)Cc1ccc(O)c(O)c1` (centres unmarked) [NDGA, nordihydroguaiaretic acid], in the experiment with neonatal mouse calvariae (1,25(OH)2 vitamin D3 as factor), the “inhibition of 1,25(OH)2 vitamin D3-induced bone resorption (in words)” value was “no significance was observed”. In addition, the “45Ca release, Factor + NDGA” value with neonatal mouse calvariae (1,25D3 10^−10M + NDGA 10^−5M) was 31.7% and 29.2% and 32.5%; with neonatal mouse calvariae (IL-1 5 × 10^−10M + NDGA 10^−5M), 23.4% and 24.6%; in the experiment on neonatal mouse calvariae (setting [4]) it was 26.8% and 35.5%; in the experiment on neonatal mouse calvariae (PTH 4 ng/ml + NDGA 10^−5M) it was 30.6% and 31.2% and 28.6%; in the experiment with neonatal mouse calvariae (TNF 2 × 10^−10M + NDGA 10^−5M), 27.8% and 31.9%. The “% Inhibition” value in the experiment on neonatal mouse calvariae (1,25D3 10^−10M + NDGA 10^−5M) was 19.8% and 24.1%; with neonatal mouse calvariae (IL-1 5 × 10^−10M + NDGA 10^−5M), 32.8%; in the experiment with neonatal mouse calvariae (setting [4]), 31.7%; with neonatal mouse calvariae (TNF 2 × 10^−10M + NDGA 10^−5M) it was 33.5%; in the experiment on neonatal mouse calvariae (WR14 LPS 50 ng/ml + NDGA 10^−5M), 40.8%. For the same compound, the “Ca^45 Release, LPS + NDGA” value in the experiment on neonatal mouse calvariae (AAY4 LPS 25 μg/ml + NDGA 10^−5M) was found to be 13.6%. For the same compound, the “45Ca release, LPS + NDGA” value in the experiment on neonatal mouse calvariae (AaY4 LPS 50 μg/ml + NDGA 10^−5M) is 22.2%. The “inhibition of LPS-induced bone resorption (in words)” value in the experiment with neonatal mouse calvariae (AaY4 LPS and/or WR14 LPS) is recorded as “significantly inhibited; also recorded: Significant inhibition”. Besides, the “inhibition of IL-1-induced bone resorption (in words)” value with neonatal mouse calvariae (IL-1 as factor) is listed as “significantly inhibits”. For the same compound, the inhibition at 10 µM in the experiment with neonatal mouse calvariae (Mus musculus, 1,25D3 10^−10M + NDGA 10^−5M, read-out: % Inhibition) is 19.6%; with neonatal mouse calvariae (Mus musculus, AAY4 LPS 25 μg/ml + NDGA 10^−5M, read-out: % Inhibition), 120%; in the experiment with neonatal mouse calvariae (Mus musculus, AaY4 LPS 50 μg/ml + NDGA 10^−5M, read-out: % Inhibition), 57.2%; with neonatal mouse calvariae (Mus musculus, IL-1 5 × 10^−10M + NDGA 10^−5M, read-out: % Inhibition), 30%; in the experiment on neonatal mouse calvariae (Mus musculus, Lymphotoxin 5 × 10^−9M + NDGA 10^−5M), 48.8%; in the experiment with neonatal mouse calvariae (Mus musculus, TNF 2 × 10^−10M + NDGA 10^−5M, read-out: % Inhibition) it was 43.2%. The inhibition at 10 µM in the experiment with neonatal mouse calvariae (Mus musculus, WR14 LPS 50 ng/ml + NDGA 10^−5M, read-out: % Inhibition) was 57.6%. The “inhibition of PTH-induced bone resorption (in words)” value in the experiment with neonatal mouse calvariae (PTH as factor) is given as “One out of three experiments showed significant inhibition”. Also, in the experiment on neonatal mouse calvariae (TNF as factor), the “inhibition of TNF-induced bone resorption (in words)” value is on record as “significantly inhibits”. Moreover, the “inhibition of lymphotoxin-induced bone resorption (in words)” value in the experiment on neonatal mouse calvariae (lymphotoxin as factor) is recorded as “significantly inhibits”. The “NDGA inhibition of lipopolysaccharide-induced bone resorption” value with neonatal mouse calvariae (two different preparations of lipopolysaccharide) is given as “Greater than 50%”. Further, the “inhibition of PTH and PTHrP-induced bone resorption” value in the experiment on isolated rat osteoclasts (NDGA 10^−6M, MK886 1 μg/ml, ZM 230,487 10 ng/ml, 20 hours) is “inhibition of the bone resorption was seen”. Besides, the “order of inhibitory effectiveness” value in the experiment with isolated rat osteoclasts (PTH and PTHrP-induced bone resorption, NDGA 10^−6M, MK886 1 μg/ml, ZM 230,487 10 ng/ml) was “ZM230487>MK886>NDGA”. For the same compound, the “effect on production of C433 activity” value in the experiment with C433 cells is listed as “completely blocked”.

Broadly, the % Inhibition is the relative decrease from the control value, in per cent. A word on the inhibition: it is the drop in the measured response relative to a control, in per cent.
